For the assay, the target named is T1, human GR (Homo sapiens, UniProt P04150).
T1 construct: naturally expresses the human GR; endogenous in cells
T1 sequence (P04150 1-777): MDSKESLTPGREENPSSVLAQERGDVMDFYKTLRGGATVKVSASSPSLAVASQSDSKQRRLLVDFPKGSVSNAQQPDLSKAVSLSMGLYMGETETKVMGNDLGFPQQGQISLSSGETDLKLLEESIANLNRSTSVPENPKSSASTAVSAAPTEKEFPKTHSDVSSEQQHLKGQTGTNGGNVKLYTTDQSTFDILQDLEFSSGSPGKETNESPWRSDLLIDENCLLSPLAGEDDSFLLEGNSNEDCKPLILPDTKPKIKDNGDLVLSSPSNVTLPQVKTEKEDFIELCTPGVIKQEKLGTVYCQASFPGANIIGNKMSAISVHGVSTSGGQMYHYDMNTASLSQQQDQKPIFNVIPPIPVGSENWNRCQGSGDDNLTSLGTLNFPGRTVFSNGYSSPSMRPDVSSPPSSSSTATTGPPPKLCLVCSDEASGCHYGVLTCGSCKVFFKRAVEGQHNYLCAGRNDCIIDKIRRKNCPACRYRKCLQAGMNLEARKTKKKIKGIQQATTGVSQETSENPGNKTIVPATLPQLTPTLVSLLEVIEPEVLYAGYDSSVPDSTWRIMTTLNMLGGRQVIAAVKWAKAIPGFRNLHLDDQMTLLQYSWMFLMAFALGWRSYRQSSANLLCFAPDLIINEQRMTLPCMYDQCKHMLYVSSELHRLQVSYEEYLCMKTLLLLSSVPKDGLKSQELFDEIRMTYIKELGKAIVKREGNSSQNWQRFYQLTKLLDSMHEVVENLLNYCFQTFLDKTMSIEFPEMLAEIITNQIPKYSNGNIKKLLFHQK
Nature of the assay: Transrepression Assay (GITAR), TNFα-β-lactamase reporter in U937 cells. In kind it is cell-based. The note with it: for Emax: U-937, activity repressed by 100 nM dexamethasone set as 100%; for EC50: inflection point (IP), TNFα promoter β-lactamase reporter, PMA/LPS; for Transrepression U937 Cells GITAR Emax (%): activity repressed by 100 nM dexamethasone set as 100%. From the text: This assay assesses the ability of test compounds to control transcription from the TNFα-β-lactamase reporter gene in U937 cells, a human myelomonocytic leukemia cell line that naturally expresses the human GR. The assay measures compound dependent-repression of the TNFa promoter linked to a reporter gene.
The human U937 cells that had been stablely transfected with the TNF-α promoter driving β-lactamase are used for this assay. U937 cells contain an endogenous glucocorticoid receptor (GR). Cells are maintained in RPMI 1640 Growth medium (Gibco Cat#11875-093) containing 25 mM HEPES, 10% FBS, 2 mM L-Glutamine, 1 mM Sodium pyruvate, 25 μg/ml Gentamicin (Gibco Cat#15710-064), 1:1000 2-Mercaptoethanol (Gibco Cat#21985-023) and 0.8 mg/ml G418 (Gibco Cat#10131-027). The density of the cells in the flask needs to be about 1×106-3×10^6/ml at the time of harvest. Usually, the cells are split to 1.2˜1.4×10^5/ml (1:10) 3 days prior to the assay. 50,000 cells/well are plated in 96 well black-walled plates the day of assay. Test compounds are added 10 μL/well, and cells are incubated at 37° C. for 30˜45 min. For assaying compounds, first dilute 1:10 in DMSO to make 1 mM, then further dilute 1:100 in medium to make 10× stock prior to adding to the cells. Add 50 ng/ml PMA (Sigma, cat# P8139) 10 μL/well to a final concentration 5 ng/ml, and 1 μg/ml LPS (Sigma, cat# L4130) 10 μL/well to a final concentration 100 ng/ml. Incubate cells at 37° C. overnight for ˜18 hr. PMA is stored frozen as 100 μg/ml stock in DMSO. Dilute 1:10 in DMSO for a working stock of 10 μg/ml and store at −20 C. For assaying, dilute the 10 μg/ml working stock 1:200 in medium to make a 10× solution (50 ng/ml). Store frozen LPS at 1 mg/ml in PBS, dilute 1:1000 in medium to make 10× (1 μg/ml) for the assay. Add 6× loading buffer (CCF2-AM) 20 μL/well, and incubate at room temperature for 70˜90 min. […] The activity repressed by 100 nM dexamethasone alone is set as 100% activity.

As for `C[C@]12Cc3cnn(-c4cccc(F)c4)c3C=C1CC[C@@]2(CO)CC(O)c1cccnc1` (single isomer, unassigned) [Example 27a], the Emax stood at 64.2% and the EC50 came to 598 nM.
Consider `C[C@]12Cc3cnn(-c4ccc(F)cc4)c3C=C1CC[C@@]2(CO)CC(O)C1CCCCC1` (single isomer, unassigned) [Example 18a, 1-cyclohexyl-2-[(4αS)-1-(4-fluorophenyl)-5-(hydroxymethyl)-4α-methyl-1,4,4α,5,6,7-hexahydrocyclopenta[f]indazol-5-yl]ethanol], for which the Emax was 93.1% and the EC50 was found to be 7.9 nM.
For `Cc1cccc(C(O)C[C@]2(CO)CCC3=Cc4c(cnn4-c4ccc(F)cc4)C[C@@]32C)c1` (single isomer, unassigned) [Example 5b], the “Transrepression U937 Cells GITAR Emax (%)” value came to 91.8% and the EC50 was 29 nM.
In the same order, the values of `Cc1ccc(C(O)C[C@]2(CO)CCC3=Cc4c(cnn4-c4ccc(F)cc4)C[C@@]32C)cc1` (single isomer, unassigned) [Example 2a] are 85.0% and 137 nM.
The molecule `CC(C)C(O)C[C@]1(CO)CCC2=Cc3c(cnn3-c3ccc(F)cc3)C[C@@]21C` (single isomer, unassigned) [Example 14a] displayed an Emax of 82.2% and an EC50 of 1130 nM.
In the same order, the values of `C[C@]12Cc3cnn(-c4ccccc4)c3C=C1CC[C@@]2(CO)CC(O)c1ccccn1` (single isomer, unassigned) [Example 23a] are 82.6% and 22.8 nM.
`C[C@]12Cc3cnn(-c4ccc(F)cc4)c3C=C1CC[C@@]2(CO)CC1OC(=O)c2ccccc21` (single isomer, unassigned) [Example 12b]: the “Transrepression U937 Cells GITAR Emax (%)” value stood at 93.0% and the midpoint of the response, the EC50, lay at 34.9 nM.
`C[C@]12Cc3cnn(-c4ccccc4)c3C=C1CC[C@@]2(CO)CC(O)c1cccnc1` (single isomer, unassigned) [Example 29a] gave an Emax of 66.6% and an EC50 of 176 nM.
As for `C[C@]12Cc3cnn(-c4ccc(F)cc4)c3C=C1CC[C@@]2(CO)CC(O)c1ccccn1` (single isomer, unassigned) [Example 1a], the Emax amounted to 93% and the EC50 was found to be 5.6 nM.
Regarding `C[C@]12Cc3cnn(-c4cccc(F)c4)c3C=C1CC[C@@]2(CO)CC(O)c1cccnc1` (single isomer, unassigned) [Example 27b], the “Transrepression U937 Cells GITAR Emax (%)” value was 71.9% and the EC50 amounted to 334 nM.
Molecule `C[C@]12Cc3cnn(-c4ccc(F)cc4)c3C=C1CC[C@@]2(CO)CC(O)c1cc(F)cc(Cl)c1` (single isomer, unassigned) [Example 6a] showed an Emax of 104% and an EC50 of 35.7 nM.
Molecule `C[C@]12Cc3cnn(-c4ccc(F)cc4)c3C=C1CC[C@@]2(CO)CC1OC(=O)c2ccccc21` (stereo partly drawn) [Example 11, 3-{[(4αS,5R)-1-(4-fluorophenyl)-5-(hydroxymethyl)-4α-methyl-1,4,4α,5,6,7,7a,8-octahydrocyclopenta[f]indazol-5-yl]methyl}-2-benzofuran-1(3H)-one] showed an Emax of 84.6% and an EC50 of 241 nM.
On the same counts, the results for `C[C@]12Cc3cnn(-c4ccc(F)cc4)c3C=C1CC[C@@]2(CO)CC1OC(=O)c2ccccc21` (single isomer, unassigned) [Example 12a] are 78.8% and 93.1 nM.
For `C[C@]12Cc3cnn(-c4ccc(F)cc4)c3C=C1CC[C@@]2(CO)CC(O)C1CCCCC1` (single isomer, unassigned) [Example 18b, 1-cyclohexyl-2-[(4αS)-1-(4-fluorophenyl)-5-(hydroxymethyl)-4α-methyl-1,4,4α,5,6,7-hexahydrocyclopenta[f]indazol-5-yl]ethanol], the “Transrepression U937 Cells GITAR Emax (%)” value amounted to 97.7% and the midpoint of the response, the EC50, lay at 25.7 nM.
On to `COc1cccnc1C(O)C[C@]1(CO)CCC2=Cc3c(cnn3-c3cccc(F)c3)C[C@@]21C` (single isomer, unassigned) [Example 26a], for which the “Transrepression U937 Cells GITAR Emax (%)” value is recorded as 82.1% and the EC50 is 80.8 nM.
`C[C@]12Cc3cnn(-c4ccc(F)cc4)c3C=C1CC[C@@]2(CO)CC(O)c1cc(F)cc(F)c1` (stereo partly drawn) [Example 9, 1-(3,5-difluorophenyl)-2-[(4αS,5R)-1-(4-fluorophenyl)-5-(hydroxymethyl)-4α-methyl-1,4,4α,5,6,7-hexahydrocyclopenta[f]indazol-5-yl]ethanol] came in with an Emax of 102% and an EC50 of 0.6 nM.
`CC(O)(C[C@]1(CO)CCC2=Cc3c(cnn3-c3ccc(F)cc3)C[C@@]21C)c1cccnc1` (single isomer, unassigned) [Example 25a] displayed an Emax of 61.3% and an EC50 of 293 nM.
On the same counts, the results for `C[C@]12Cc3cnn(-c4ccc(F)cc4)c3C=C1CC[C@@]2(CO)CC(O)C(F)(F)F` (single isomer, unassigned) [Example 28a] are 81.2% and 54.3 nM.
Take `C[C@]12Cc3cnn(-c4ccc(F)cc4)c3C=C1CC[C@@]2(CO)CC(O)c1ccccn1` (single isomer, unassigned) [Example 1b]: the “Transrepression U937 Cells GITAR Emax (%)” value is listed as 91.7% and it took 24 nM to reach a half-maximal effect (EC50).
Turning to `C[C@]12Cc3cnn(-c4ccc(F)cc4)c3C=C1CC[C@@]2(CO)CC(O)c1ccncc1` (single isomer, unassigned) [Example 17b], the “Transrepression U937 Cells GITAR Emax (%)” value is 83.3% and the midpoint of the response, the EC50, lay at 59.7 nM.
`C[C@]12Cc3cnn(-c4ccc(F)cc4)c3C=C1CC[C@@]2(CO)CC(O)c1ccccc1Cl` (single isomer, unassigned) [Example 3a] displayed an Emax of 93.3% and an EC50 of 37.6 nM.
Regarding `C[C@]12Cc3cnn(-c4ccc(F)cc4)c3C=C1CC[C@@]2(CO)CC(O)c1cc(F)cc(Cl)c1` (single isomer, unassigned) [Example 6b], the “Transrepression U937 Cells GITAR Emax (%)” value is reported as 98.3% and the EC50 was 68.8 nM.
Turning to `C[C@]12Cc3cnn(-c4ccc(F)cc4)c3C=C1CC[C@@]2(CO)CC(O)c1ccncc1` (single isomer, unassigned) [Example 17a], the Emax is 86.1% and it took 75.3 nM to reach a half-maximal effect (EC50).
On the same counts, the results for `C[C@]12Cc3cnn(-c4ccc(F)cc4)c3C=C1CC[C@@]2(CO)CC(O)C1CC1` (single isomer, unassigned) [Example 20a, 1-cyclopropyl-2-[(4αS)-1-(4-fluorophenyl)-5-(hydroxymethyl)-4α-methyl-1,4,4α,5,6,7-hexahydrocyclopenta[f]indazol-5-yl]ethanol] are 79.9% and 133 nM.
With `COc1cccnc1C(O)C[C@]1(CO)CCC2=Cc3c(cnn3-c3ccc(F)cc3)C[C@@]21C` (single isomer, unassigned) [Example 21b], the “Transrepression U937 Cells GITAR Emax (%)” value amounted to 91.3% and the EC50 worked out at 18.7 nM.

The term Emax denotes the maximal effect, on the per cent scale that the assay sets. By EC50 is commonly meant the concentration giving half of the maximal effect.

For the origin of these results see US20120095055A1, “HEXAHYDROCYCLOPENTYL[f]INDAZOLE 5-HYDROXYMETHYL ETHANOLS AND DERIVATIVES THEREOF AS SELECTIVE GLUCOCORTICOID RECEPTOR MODULATORS” (Merck Sharp & Dohme, Corp., priority 2009, published 2012).
